Measurements from ChEMBL document CHEMBL3860051, “Phosphorothioate analogs of P1,P3-di(nucleosid-5'-yl) triphosphates: Synthesis, assignment of the absolute configuration at P-atoms and P-stereodependent recognition by Fhit hydrolase” (Bioorg Med Chem, 2016).

Columns and labels:
[1] = (§1) Stability of the compound assessed as snake venom phosphodiesterase-mediated compound hydrolysis at 50 uM after 15 mins by RP-HPLC analysis; assay type: ADME; details: serpentes, 0.25 h, 50 µM
[2] = Stability of the compound assessed as snake venom phosphodiesterase-mediated initial rate of hydrolysis per microgram of protein at 50 uM after 15 mins by RP-HPLC analysis; assay type: ADME; details: serpentes, 0.25 h
[3] = target: T1, Bis(5'-adenosyl)-triphosphatase (Homo sapiens, UniProt P49789); assay: Stability of the compound assessed as human Fhit expressed in Escherichia coli BL21-mediated compound hydrolysis rate per microgram protein at 50 uM after 5 to 120 mins by RP-HPLC analysis; assay type: ADME
T1 sequence (P49789 whole entry): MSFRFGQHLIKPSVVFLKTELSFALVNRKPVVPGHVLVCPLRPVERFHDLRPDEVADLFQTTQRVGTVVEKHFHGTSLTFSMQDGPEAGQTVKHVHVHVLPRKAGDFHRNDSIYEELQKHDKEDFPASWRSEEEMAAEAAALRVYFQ

[4] = system: snake venom phosphodiesterase; assay: Stability of the compound assessed as snake venom phosphodiesterase-mediated compound hydrolysis at 50 uM after 30 mins by RP-HPLC analysis; assay type: ADME; details: serpentes, read-out: Drug degradation
[5] = Stability of the compound assessed as snake venom phosphodiesterase-mediated initial rate of hydrolysis per microgram of protein at 50 uM after 30 mins by RP-HPLC analysis; assay type: ADME; details: serpentes, 0.5 h
[6] = Retention time of compound by RP-HPLC analysis; assay type: physicochemical
[7] = system: snake venom phosphodiesterase; assay: Stability of the compound assessed as snake venom phosphodiesterase-mediated compound hydrolysis at 200 uM after 1 hr by RP-HPLC analysis; assay type: ADME; details: serpentes, read-out: Drug degradation
[8] = Stability of the compound assessed as snake venom phosphodiesterase-mediated initial rate of hydrolysis per microgram of protein at 200 uM after 1 hr by RP-HPLC analysis; assay type: ADME; details: serpentes
[9] = target: T1, Bis(5'-adenosyl)-triphosphatase; assay: Stability of compound assessed as human Fhit expressed in Escherichia coli BL21-mediated compound initial rate of hydrolysis per microgram of protein at 50 to 200 uM after 5 to 120 mins by RP-HPLC analysis; assay type: ADME
[10] = system: snake venom phosphodiesterase; assay: Stability of the compound assessed as snake venom phosphodiesterase-mediated compound hydrolysis at 50 uM after 2 hrs by RP-HPLC analysis; assay type: ADME; details: serpentes, read-out: Drug degradation
[11] = Stability of the compound assessed as snake venom phosphodiesterase-mediated initial rate of hydrolysis per microgram of protein at 50 uM after 2 hrs by RP-HPLC analysis; assay type: ADME; details: serpentes
[12] = Drug level treated with (R,R)-P1,P3-di(adenosin-5'-yl)P1,P3-bis-thio-triphosphate assessed as snake venom phosphodiesterase-mediated compound formation at 50 uM after 10 mins by RP-HPLC analysis; assay type: ADME; details: serpentes
[13] = system: snake venom phosphodiesterase; assay: Stability of compound assessed as snake venom phosphodiesterase-mediated compound hydrolysis at 50 uM by RP-HPLC analysis; assay type: ADME; details: serpentes, read-out: Drug degradation
[14] = Stability of the compound assessed as snake venom phosphodiesterase-mediated initial rate of hydrolysis per microgram of protein at 50 uM by RP-HPLC analysis; assay type: ADME; details: serpentes
[15] = system: snake venom phosphodiesterase; assay: Stability of the compound assessed as snake venom phosphodiesterase-mediated compound hydrolysis at 50 uM after 1 hr by RP-HPLC analysis; assay type: ADME; details: serpentes, read-out: Drug degradation
[16] = Stability of the compound assessed as snake venom phosphodiesterase-mediated initial rate of hydrolysis per microgram of protein at 50 uM after 1 hr by RP-HPLC analysis; assay type: ADME; details: serpentes
[17] = system: snake venom phosphodiesterase; assay: Stability of the compound assessed as snake venom phosphodiesterase-mediated compound hydrolysis at 50 uM after 10 mins by RP-HPLC analysis; assay type: ADME; details: serpentes, read-out: Drug degradation
[18] = Stability of the compound assessed as snake venom phosphodiesterase-mediated initial rate of hydrolysis per microgram of protein at 50 uM after 10 mins by RP-HPLC analysis; assay type: ADME; details: serpentes
[19] = system: snake venom phosphodiesterase; assay: as §1; assay type: ADME; details: serpentes, snake venom phosphodiesterase; read-out: Drug degradation
[20] = Drug level treated with (S,S)-P1,P3-di(adenosin-5'-yl)P1,P3- bis-thio-triphosphate assessed as snake venom phosphodiesterase-mediated compound formation at 50 uM after 2 hrs by RP-HPLC analysis; assay type: ADME; details: serpentes
[21] = Drug level treated with (R,S)-P1,P3-di(adenosin-5'-yl)P1,P3- bis-thio-triphosphate assessed as snake venom phosphodiesterase-mediated compound formation at 50 uM after 30 mins by RP-HPLC analysis; assay type: ADME; details: serpentes, 0.5 h
[22] = Drug level treated with 1-O-[(guanosin-5'-yl)thiophosphyl]-2-S-[(guanosin-5'-yl)dithiophosphyl]-ethane assessed as snake venom phosphodiesterase-mediated compound formation at 50 uM after 15 mins by RP-HPLC analysis; assay type: ADME; details: serpentes, 0.25 h

SMILES: Nc1nc2c(ncn2[C@@H]2O[C@H](COP(=O)(S)OCCSP(=O)(S)OC[C@H]3O[C@@H](n4cnc5c(=O)[nH]c(N)nc54)[C@H](O)[C@@H]3O)[C@@H](O)[C@H]2O)c(=O)[nH]1 (stereo in doubt; 9B)
- Drug degradation [1]: 56%
- Drug degradation [2]: 0.5539 nmol/min
- Drug degradation [3]: 2 pmol/min

SMILES: Nc1ncnc2c1ncn2[C@@H]1O[C@H](CO[P@](=O)(S)OP(=O)(O)O[P@](=O)(S)OC[C@H]2O[C@@H](n3cnc4c(N)ncnc43)[C@H](O)[C@@H]2O)[C@@H](O)[C@H]1O
- metabolised at 0.5 h, 50 µM [4]: 88%
- Drug degradation [5]: 0.0368 nmol/min
- Drug degradation [3]: 27.8 pmol/min

SMILES: NC(=O)c1ncn([C@@H]2O[C@H](CO[P@@](=O)(S)OP(=O)(O)O)[C@@H](O)[C@H]2O)n1
- Retention_time [6]: 11.8 min

SMILES: NC(=O)c1ncn([C@@H]2O[C@H](CO[P@@](=O)(S)OP(=O)(O)O[P@](=O)(S)OC[C@H]3O[C@@H](n4cnc(C(N)=O)n4)[C@H](O)[C@@H]3O)[C@@H](O)[C@H]2O)n1
- metabolised at 1 h, 200 µM [7]: 80%
- Drug degradation [8]: 0.0538 nmol/min
- Stability [9]: Stable

SMILES: NC(=O)c1ncn([C@@H]2O[C@H](CO[P@](=O)(S)OP(=O)(O)O)[C@@H](O)[C@H]2O)n1
- Retention_time [6]: 10.9 min

SMILES: Nc1ncnc2c1ncn2[C@@H]1O[C@H](CO[P@](=O)(S)OP(=O)(O)O[P@@](=O)(S)OC[C@H]2O[C@@H](n3cnc4c(N)ncnc43)[C@H](O)[C@@H]2O)[C@@H](O)[C@H]1O
- metabolised at 2 h, 50 µM [10]: 52%
- Drug degradation [11]: 0.0012 nmol/min
- Drug degradation [3]: 5.7 pmol/min

SMILES: Nc1ncnc2c1ncn2[C@@H]1O[C@H](CO[P@@](=O)(S)OP(=O)(O)O)[C@@H](O)[C@H]1O
- Retention_time [6]: 18.9 min
- Drug metabolism [12]: Metabolite_Detected
- metabolised at 50 µM [13]: 10%
- Drug degradation [14]: 2.9 ×10⁻³ nmol/min

SMILES: Nc1nc2c(ncn2[C@@H]2O[C@H](COP(=O)(S)OP(=O)(O)OP(=O)(S)OC[C@H]3O[C@@H](n4cnc5c(=O)[nH]c(N)nc54)[C@H](O)[C@@H]3O)[C@@H](O)[C@H]2O)c(=O)[nH]1 (mixture of isomers)
- metabolised at 1 h, 50 µM [15]: 50%
- Drug degradation [16]: 0.0275 nmol/min
- Drug degradation [3]: 5.9 pmol/min

SMILES: Nc1ncnc2c1ncn2[C@@H]1O[C@H](CO[P@@](=O)(S)OP(=O)(O)O[P@](=O)(S)OC[C@H]2O[C@@H](n3cnc4c(N)ncnc43)[C@H](O)[C@@H]2O)[C@@H](O)[C@H]1O
- metabolised at 10 min, 50 µM [17]: 88%
- Drug degradation [3]: 5.8 pmol/min
- Drug degradation [18]: 0.1349 nmol/min

SMILES: Nc1nc2c(ncn2[C@@H]2O[C@H](COP(=O)(S)OCCSP(=O)(S)OC[C@H]3O[C@@H](n4cnc5c(=O)[nH]c(N)nc54)[C@H](O)[C@@H]3O)[C@@H](O)[C@H]2O)c(=O)[nH]1 (stereo in doubt; 9A)
- metabolised at 0.25 h, 50 µM [19]: 70%
- Drug degradation [2]: 0.6944 nmol/min
- Drug degradation [3]: 3.9 pmol/min

SMILES: NC(=O)c1ncn([C@@H]2O[C@H](COP(=O)(O)S)[C@@H](O)[C@H]2O)n1 (some centres undefined)
- Retention_time [6]: 10.6 min

SMILES: Nc1ncnc2c1ncn2[C@@H]1O[C@H](COP(=O)(O)OP(=O)(O)OP(=O)(O)OC[C@H]2O[C@@H](n3cnc4c(N)ncnc43)[C@H](O)[C@@H]2O)[C@@H](O)[C@H]1O
- Drug degradation [3]: 9810 pmol/min

SMILES: Nc1nc2c(ncn2[C@@H]2O[C@H](CO[P@@](=O)(S)OP(=O)(O)O[P@](=O)(S)OC[C@H]3O[C@@H](n4cnc5c(=O)[nH]c(N)nc54)[C@H](O)[C@@H]3O)[C@@H](O)[C@H]2O)c(=O)[nH]1
- metabolised at 1 h, 50 µM [15]: 95%
- Drug degradation [16]: 0.1212 nmol/min
- Drug degradation [3]: 0.7 pmol/min

SMILES: Nc1ncnc2c1ncn2[C@@H]1O[C@H](CO[P@](=O)(S)OP(=O)(O)O)[C@@H](O)[C@H]1O
- Retention_time [6]: 16.8 min
- Drug metabolism [20]: Metabolite_Detected
- Drug metabolism [21]: Metabolite_Detected
- metabolised at 50 µM [13]: 10%
- Drug degradation [14]: 1.1 ×10⁻³ nmol/min

SMILES: Nc1ncnc2c1ncn2[C@@H]1O[C@H](COP(O)(O)=S)[C@@H](O)[C@H]1O
- Retention_time [6]: 13.8 min

SMILES: Nc1nc2c(ncn2[C@@H]2O[C@H](CO[P@](=O)(S)OP(=O)(O)O)[C@@H](O)[C@H]2O)c(=O)[nH]1
- Retention_time [6]: 14.9 min

SMILES: NC(=O)c1ncn([C@@H]2O[C@H](CO[P@](=O)(S)OP(=O)(O)O[P@](=O)(S)OC[C@H]3O[C@@H](n4cnc(C(N)=O)n4)[C@H](O)[C@@H]3O)[C@@H](O)[C@H]2O)n1
- metabolised at 1 h, 200 µM [7]: 41%
- Drug degradation [8]: 0.0253 nmol/min
- Stability [9]: Stable

SMILES: Nc1ncnc2c1ncn2[C@@H]1O[C@H](COP(=O)(O)OP(=O)(O)O)[C@@H](O)[C@H]1O [ADENOSINE DIPHOSPHATE]
- Stability [14]: Stable

SMILES: Nc1nc2c(ncn2[C@@H]2O[C@H](CO[P@@](=O)(S)OP(=O)(O)O)[C@@H](O)[C@H]2O)c(=O)[nH]1
- Retention_time [6]: 16.9 min

SMILES: NC(=O)c1ncn([C@@H]2O[C@H](CO[P@](=O)(S)OP(=O)(O)O[P@@](=O)(S)OC[C@H]3O[C@@H](n4cnc(C(N)=O)n4)[C@H](O)[C@@H]3O)[C@@H](O)[C@H]2O)n1
- metabolised at 1 h, 200 µM [7]: 10%
- Drug degradation [8]: 0.0023 nmol/min
- Stability [9]: Stable

SMILES: Nc1nc2c(ncn2[C@@H]2O[C@H](COP(O)(O)=S)[C@@H](O)[C@H]2O)c(=O)[nH]1
- Retention_time [6]: 11.1 min
- Drug metabolism [22]: Metabolite_Detected
